Experimental findings from patent US11739073B2, “Aryl-n-aryl derivatives for treating a RNA virus infection” (ABIVAX, priority 2018, dated 2023) are described below.

For assay [1], the system named is Chikungunya Virus (CHIKV). The assay can be described thus: Inhibition of Chikungunya virus (CHIKV) production in infected HEK293T cell line (GFP-modified virus, fluorescence). The format is cell-based, CHIKV strain of La Réunion outbreak (LR2006-OPY1). As to conditions: HEK-293T, infected HEK293T cells; for inhibition at 1 µM: compounds at 1 μM, MOI 0.1, 22 h, values above 100 lowered to 100, read-out: % CHIKV Inhibition Mean (n = 2); for IC50: read-out: IC50 (CHIKV, second round of experiments). On the procedure: The ability of the compounds to inhibit viral replication was assessed with an experiment in which infected cells were treated by compounds of formula (I) at 1 μM. As a positive control for inhibition of Chikungunya, Ribavirin was used. Toxicity of the compounds was assessed in parallel.
Human embryonic kidney cells 293T (HEK293T, CRL-11268) were maintained in Dulbecco's modified Eagle's Medium (DMEM, 31966-021, Thermo Fisher Scientific) supplemented with 10% of fetal bovine serum (FBS), penicillin and streptomycin. After removal of the medium, cells were washed with Ca^2+ and Mg^2+-free salt solution to remove all traces of serum. After aspiration of wash solution, cells were dissociated with 0.25% Trypsin-EDTA solution and incubated 30 s at least in 37° C. incubator. Concentration of cell suspension was determined by an automatic cell counter (EVE, NanoEntek) and, if needed, adjusted to 0.33×10^6 cells/mL with DMEM medium supplemented with 10% FBS.
100 μL of the cell suspension were dispatched in a ViewPlate-96 Black (6005182, PerkinElmer) and in a transparent 96-well cell culture plate (655180, Greiner bio-one). After an incubation for 24 h at 37° C. under 5% of CO2, compounds were added at the proper concentration.
An intermediate dilution was prepared with DMSO (D8418, Sigma) at 2 mM in a 96-well V-bottom microplate from the stock solution:
Mix 1 μL of the 50 mM stock library in 25 μL of DMSO.
Mix 2 μL of the 25 mM stock library in 25 μL of DMSO.
An intermediate dilution was prepared with DMSO (D8418, Sigma) at 25 mM in a 96-well V-bottom microplate from the stock solution:
Mix 2 μL of the 50 mM stock library in 2 μL of DMSO.
Perform serial dilution in 2 μL of DMSO 13 times to reach 0.0015 mM. Proceed as follows in table III:
For both screen and determination of IC50, 1 μL of each solution was added in a 1 mL Masterblock 96 wells (Greiner bio-one, 780261) containing 1 mL of DMEM medium. As a positive control, 5 μL of a 80 mM Ribavirin solution (R9644, Sigma) is added to 1 mL of DMEM. On the other hand, DMSO is used as a negative control.
[…]. Vector Borne Zoonotic Dis. 2006; 6(4)). This modified virus was used to infect cells at MOI 0.1. […]. Medium was removed after 22 h at 37° C. under 5% of CO2 and cells were washed as described above. 60 μL of RIPA buffer (50 mM Tris-HCl pH8, 100 mM NaCl, 1 mM MgCl2, 1% Triton X-100) was added to cells and incubated for at least 20 min before reading fluorescence signal. Pierce 660 nm Protein Assay Reagent (22660, Thermo scientific) was used to normalize fluorescence signal by protein quantity.
CellTiter 96® AQueous One Solution Cell Proliferation Assay (MTS) (G3581, Promega) was used to check the toxicity of the compounds. We added 20 μL of MTS solution and read absorbance at 492 nm one hour later.
Results • A first round of experiments has been performed wherein the results are expressed as inhibition percentage, which is calculated as follows, through the following steps:
1. Fluorescence intensity (FI)/Absorbance 660 nm (A660)=A
This ratio allows considering the infection (GFP virus) to the protein amount.
2. A′=A—background noise of non-infected plate,
3. B=Fluorescence intensity (FI)/Absorbance 660 nm (A660) of infected but non treated plates,
4. C=A′/B, which is then converted as the percentage of infection after treatment, compared to non-treated sample, and subsequently as the […]. For instance, a value of 100 in Table IV here below means that, after treatment, the signal attributed to GFP fluorescence is abolished, which is correlated to the absence of infection.
This value corresponds to the inhibition's percentage.
The following Table IV encompasses said C′ value for some compounds, as calculated above with a mean of 2 experiments, and corresponding standard deviation.
Some values were originally above 100. In these cases, the value has been lowered to 100. This means that some molecules also have an impact on the viability of the cells. […]

In another assay the test system is RSV. Nature of the assay: RSV inhibition in HEp-2 cells using Viral ToxGlo assay (cytopathic effect). It counts as cell-based, RSV A2. As to conditions: human respiratory syncytial virus, HEp-2, 72 h. The protocol:
Protocol for Screening Antiviral Compounds for RSV Inhibition and Cytotoxicity Using Viral ToxGlo Assay
HEp-2 cells were maintained in Eagle's minimum essential medium (EMEM) with Earle's BSS adjusted to contain 2 mM L-glutamine, 10% fetal bovine serum, 100 U/ml penicillin and 100 μg/ml streptomycin. For the purposes of the screening assay they were grown to 90% confluency, trypsinized and recovered. The trypsin was neutralised with cell culture media and cells were centrifuged at 150×g for 5 minutes before discarding the supernatant and resuspending cell pellet in assay media (EMEM with Earle's BSS adjusted to contain 2 mM L-glutamine, 2% fetal bovine serum and 100 U/ml penicillin and 100 μg/ml streptomycin). The cells were seeded into white clear-bottomed cell culture plates at a density of 1.5×10^4 cells/well in 50 μl and 4×10^3 cells/well in 25 μl for 96 well plates and 384 well plates respectively. For the media/background control column assay media only was added. Cell plates were placed in a humid chamber and incubated overnight at 37° C./5% CO2. After overnight incubation cells were checked for confluency and healthy appearance.
Test articles were made up at 10× test concentration in a maximum DMSO concentration of 10% (final assay concentration maximal 1% DMSO) and added to the cell plates in volumes of 10 μl for 96 well plates and 5 μl for 384 well plates. For cell control and virus control wells the test article solvent only was added. Virus or assay media for cytotoxicity test wells and media/cell control wells was added immediately after test articles at an MOI of 0.5, 40 or 20 μl for 96 and 384 well plates respectively. Virus suspension was prepared by thawing RSV A2 frozen stocks and diluting to the required concentration of plaque forming units in assay media on ice.
Cell plates were further incubated inside a humid chamber for 72 h p.i at 37° C./5% CO2. After the incubation period cells were observed under the microscope to check for characteristic cytopathic effect in virus control wells and healthy cells in the cell control wells. After plates were adjusted to room temperature 20/40 μl Viral ToxGlo (Promega) was added to each well of the 384/96 well cell plates. Plates were incubated at room temperature, protected from light on a plate rocker for 20 minutes before measuring the luminescence on a spectrophotometer (Biotek Synergy HTX).
RSV inhibition was calculated as percentage of cytopathic effect inhibition relative to the virus control and cytotoxicity as percentage of cell survival relative to cell control wells. This allowed EC50 values to be calculated for each test article where a virus inhibition or cytotoxic dose response was identified.

In a further assay the test system is DENV-2. Nature of the assay: DENV-2 inhibition in A549 cells using Viral ToxGlo assay (cytopathic effect). It counts as cell-based, DENV-2 strain 16681. The conditions noted are these: Dengue virus, DENV2, A549, 120 h, read-out: % DENV-2 Inhibition Mean (n = 3). The protocol:
Protocol for Screening Antiviral Compounds for DENV-2 Inhibition and Cytotoxicity Using Viral ToxGlo Assay
A549 cells were maintained in Dulbecco's Modified Eagle Medium (DMEM) supplemented with 10% fetal bovine serum, 100 U/ml penicillin and 100 μg/ml streptomycin. For the purposes of the screening assay they were grown to 90% confluency, trypsinized and recovered. The trypsin was neutralised with cell culture media and cells were centrifuged at 150×g for 5 minutes before discarding the supernatant and resuspending cell pellet in assay media (DMEM supplemented with 2% fetal bovine serum and 100 U/ml penicillin and 100 μg/ml streptomycin). The cells were seeded into 96-well white clear-bottomed cell culture plates at a density of 1.0×10^4 cells/well in 50 μl. For the media/background control column assay media only was added. Cell plates were placed in a humid chamber and incubated overnight at 37° C./5% CO2. After overnight incubation cells were checked for confluency and healthy appearance.
Test compounds were prepared at a final concentration of 10 μM in a maximum DMSO concentration of 1% (final assay concentration maximal 0.1% DMSO) and added to the cell plates in volumes of 10 μl. For cell control and virus control wells the test article solvent only was added. As a positive inhibition control, 7-Deaza-2′-C-methyladenosine was added at 100 μM in 3 wells. Virus (DENV-2 strain 16681) or assay media for cytotoxicity test wells and media/cell control wells was added immediately after test articles at an MOI of 0.5, 40 for 96 well plates respectively. Virus suspension was prepared by thawing DENV-2 frozen stocks and diluting to the required concentration of plaque forming units in assay media.
Cell plates were further incubated inside a humid chamber for 5 days p.i at 37° C./5% CO2. After the incubation period cells were observed under the microscope to check for characteristic cytopathic effect in virus control wells and healthy cells in the cell control wells. After plates were adjusted to room temperature 20 μl Viral ToxGlo (Promega) was added to each well of the 96-well cell plates. Plates were incubated at room temperature for 5 minutes before measuring the luminescence on a spectrophotometer (Envision, PerkinElmer).
DENV-2 inhibition was calculated as percentage of cytopathic effect inhibition relative to the virus control and cytotoxicity as percentage of cell survival relative to cell control wells.
(In general: Protection from cytopathic effect is a common read-out in antiviral testing.)

What is called inhibition is the drop in the measured response relative to a control, in per cent. As a reminder, the IC50 is the concentration that gives 50% inhibition. As usually defined, the EC50 is the midpoint of the concentration-response curve.

For the compound `CC(C)CCNC(=O)c1cccc(Nc2ccc(C(=O)Nc3ccccn3)cc2)c1` [Compound 14, N-isopentyl-3-((4-(pyridin-2-ylcarbamoyl)phenyl)amino)benzamide], in assay [1], the inhibition at 1 µM was determined as 93% and the IC50 was in the range of 200 to 500 nM.
On to `O=C(NCCC1CCCCC1)c1cccc(Nc2ccc(C(=O)Nc3ccccn3)cc2)c1` [Compound 16, N-(2-cyclohexylethyl)-3-((4-(pyridin-2-ylcarbamoyl)phenyl)amino)benzamide], for which, in assay [1], the inhibition at 1 µM stood at 100% and the IC50 is 200 to 500 nM. In the assay on RSV, the EC50 came out at 1170 nM.
In the case of `O=C(NCCC1CCCCC1)c1cccc(Nc2ccc(/C=C/c3ccccn3)cc2)c1` [Compound 4, (E)-N-(2-cyclohexylethyl)-3-((4-(2-(pyridin-2-yl)vinyl)phenyl)amino)benzamide], in assay [1], the inhibition at 1 µM is 99%.
As to `O=C(NCCC1CCC1)c1cccc(Nc2ccc(/C=C/c3ccccn3)cc2)c1` [Compound 9, (E)-N-(2-cyclobutylethyl)-3-((4-(2-(pyridin-2-yl)vinyl)phenyl)amino)benzamide], the inhibition at 1 µM in assay [1] was 98%.
In the case of `Cc1cc(/C=C/c2ccccn2)ccc1Nc1cccc(C(=O)NCCC2CCCC2)c1` [Compound 12, (E)-N-(2-cyclopentylethyl)-3-((2-methyl-4-(2-(pyridin-2-yl)vinyl)phenyl)amino)benzamide], the IC50 in assay [1] fell in the range of 1 to 200 nM. Further, the inhibition at 10 µM in the assay with DENV-2 turned out to be 96%. Moreover, the EC50 in the assay with RSV lay in the range of 370 to 2500 nM.
In the case of `CC(C)CCNC(=O)c1cccc(Nc2ccc(NC(=O)c3ccccn3)cc2)c1` [Compound 32, N-(4-((3-(isopentylcarbamoyl)phenyl)amino)phenyl)picolinamide], in assay [1], the inhibition at 1 µM was found to be 99% and the IC50 was 200 to 500 nM.
As to `O=C(Nc1ccccc1)c1ccc(Nc2cccc(OCCCC3CCCCC3)c2)c(C2CC2)c1` [Compound 115, 4-{[3-(3-cyclohexylpropoxy)phenyl]amino}-3-cyclopropyl-N-phenylbenzamide], the EC50 in the assay on RSV worked out at 229 nM.
Take `O=C(NCCC1CCCC1)c1cccc(Nc2ccc(C(=O)Nc3ccccn3)cc2)c1` [Compound 15, N-(2-cyclopentylethyl)-3-((4-(pyridin-2-ylcarbamoyl)phenyl)amino)benzamide]: in assay [1], the inhibition at 1 µM came out at 98% and the IC50 lay in the range of 200 to 500 nM. In the assay with DENV-2, the inhibition at 10 µM was 107%.
For `O=C(NCCC1CCCC1)c1cccc(Nc2ccc(NC(=O)c3ccccn3)cc2)c1` [Compound 35, N-(4-((3-((2-cyclopentylethyl)carbamoyl)phenyl)amino)phenyl)picolinamide], in assay [1], the inhibition at 1 µM is 100% and the IC50 was 200 to 500 nM. Further, in the assay on DENV-2, the inhibition at 10 µM was found to be 66%.
For `O=C(NCCC1CCCC1)c1cccc(Nc2ccc(/C=C/c3ccccn3)cc2)c1` [Compound 6, (E)-N-(2-cyclopentylethyl)-3-((4-(2-(pyridin-2-yl)vinyl)phenyl)amino)benzamide], in assay [1], the inhibition at 1 µM worked out at 98% and the IC50 fell in the range of 200 to 500 nM.
For `CC(C)CCNC(=O)c1ccc(Nc2ccc(/C=C/c3ccccn3)cc2)cc1` [Compound 2, (E)-N-isopentyl-4-((4-(2-(pyridin-2-yl)vinyl)phenyl)amino)benzamide], the inhibition at 1 µM in assay [1] came to 74%.
Turning to `Cc1cc(/C=C/c2ccccn2)ccc1Nc1cccc(C(=O)NCCC(C)C)c1` [Compound 13, (E)-N-isopentyl-3-((2-methyl-4-(2-(pyridin-2-yl)vinyl)phenyl)amino)benzamide], the concentration for half-maximal inhibition (IC50) in assay [1] fell in the range of 1 to 200 nM. Also, the inhibition at 10 µM in the assay with DENV-2 came to 86%. Further, in the assay on RSV, the EC50 lay within 370 to 2500 nM.
Turning to `CC(C)CCNC(=O)c1cccc(Nc2ccc(/C=C/c3ccccn3)cc2)c1` [Compound 1, (E)-N-isopentyl-3-((4-(2-(pyridin-2-yl)vinyl)phenyl)amino)benzamide], the inhibition at 1 µM in assay [1] stood at 98%.
